Experimental data as given in article PMC6930500, “Structure–Activity Relationships of 7-Substituted Dimethyltyrosine-Tetrahydroisoquinoline Opioid Peptidomimetics” (Molecules, 2019).

Experiments:
[1] = biological target: T1, human KOR (Homo sapiens, UniProt P41145); test: [3H]-diprenorphine competitive displacement binding, KOR; conditions: membranes from CHO cells expressing human KOR; mean (SEM), n>=3 in duplicate
T1 construct: expressed in transfected cells; cell lines provided by Professor Lawrence Toll
Experimental: (§1) Each novel compound was evaluated for binding to and stimulation of KOR, MOR, and DOR. Binding affinity (Ki) was determined by competitive displacement of [^3H]-diprenorphine, a non-selective opioid receptor antagonist with similar affinity for each of the three receptors. Potency (EC50) and efficacy, expressed as percent stimulation compared to a standard agonist at each receptor, were determined by a [^35S]-GTPγS binding assay.
(§2) Membranes prepared from transfected Chinese Hamster Ovary cells stably expressing human KOR, human MOR, or human DOR were used for all assays. Cells were grown to confluence at 37 °C in 5% CO2 in 1:1 DMEM:F12 media with 10% v/v fetal bovine serum and 5% v/v penicillin/streptomycin. Membranes were prepared by washing confluent cells three times with ice cold phosphate-buffered saline (0.9% NaCl, 0.61 mM Na2HPO4, 0.38 mM KH2PO4, pH 7.4). Cells were detached from the plates by incubation in warm harvesting buffer (20 mM HEPES, 150 mM NaCl, 0.68 mM EDTA, pH 7.4) and pelleted by centrifugation at 200× g for 3 min. The cell pellet was suspended in ice-cold 50 mM Tris-HCl buffer, pH 7.4 and homogenized with a Tissue Tearor (Biospec Products, Inc, distributed by Cole-Parmer, Vernon Hills, IL, USA) for 20 s at setting 4. The homogenate was centrifuged at 20,000× g for 20 min at 4 °C, and the pellet was rehomogenized in 50 mM Tris-HCl pH 7.4 with a Tissue Tearor for 10 s at setting 2, followed by recentrifugation. The final pellet was resuspended in 50 mM Tris-HCl pH 7.4 and frozen in aliquots at −80 °C. Protein concentration was determined via Pierce BCA protein assay kit using bovine serum albumin as the standard.
(§3) Binding affinities for all test compounds at KOR, MOR, and DOR were determined by competitive displacement of [^3H]-diprenorphine as previously reported. In a 96-well plate format, cell membranes (5–10 µg of protein) and [^3H]-diprenorphine (0.2 nM) were incubated in Tris-HCl buffer (50 mM, pH 7.4) with various concentrations of test compound at 25 °C for 1 h, allowing the mixture to reach equilibrium. Nonspecific binding was determined using the opioid antagonist naloxone (10 µM), and total binding was determined using vehicle in the absence of competitive ligand. After incubation, membranes were filtered through Whatman GF/C 1.2 micron glass fiber filters and washed with 50 mM Tris-HCl buffer. The radioactivity remaining on the filters was then quantified by liquid scintillation counting after saturation with EcoLume liquid scintillation cocktail in a Microbeta 2450 (Perkin-Elmer, Waltham, MA, USA). Binding affinity (Ki) values were calculated using the Cheng–Prusoff equation via nonlinear regression analysis using GraphPad Prism software from at least three separate binding assays performed in duplicate.

[2] = biological target: T2, human MOR (Homo sapiens, UniProt P35372); test: [3H]-diprenorphine competitive displacement binding, MOR; conditions: membranes from CHO cells expressing human MOR; mean (SEM), n>=3 in duplicate
T2 construct: expressed in transfected cells; cell lines provided by Professor Lawrence Toll
Experimental: as §1, §2, §3

[3] = biological target: T3, human DOR (Homo sapiens, UniProt P41143); test: [3H]-diprenorphine competitive displacement binding, DOR; conditions: membranes from CHO cells expressing human DOR; mean (SEM), n>=3 in duplicate
T3 construct: expressed in transfected cells; cell lines provided by Professor Lawrence Toll
Experimental: as §1, §2, §3

[4] = biological target: T1, human KOR; test: [35S]-GTPγS binding stimulation, KOR; format: biochemical; conditions: mean (SEM); for EC50 / EC50 KOR: CHO-human KOR membranes, * n = 2, dns = does not stimulate, average maximal stimulation <10% at up to 10 µM; for Emax / % Stimulation KOR: versus 10 µM standard agonist U69,593, dns = average maximal stimulation <10% at up to 10 µM
Experimental: as §1, §2
(§4) Agonist stimulation of KOR, MOR, and DOR by all test compounds was determined by [^35S]-guanosine 5′-O-[γ-thio]triphosphate ([^35S]-GTPγS) binding assays as previously reported. In a 96-well plate format, membranes from cells expressing opioid receptors as described above (10 µg of protein), [^35S]-GTPγS (0.1 nM), and guanosine diphosphate (30 µM) were incubated in GTPγS buffer (50 mM Tris-HCl, 100 mM NaCl, 5 mM MgCl2, 1 mM EDTA, pH 7.4) with various concentrations of test compound at 25 °C for 1 h. Basal stimulation was determined by incubation in the absence of any ligand. After incubation, membranes were filtered through Whatman GF/C 1.2 micron glass fiber filters and washed with GTPγS buffer with no EDTA. The radioactivity remaining on the filters was then quantified by liquid scintillation counting after saturation with EcoLume liquid scintillation cocktail in a Perkin-Elmer Microbeta 2450. Data are reported as percent stimulation compared to the effects of 10 µM standard agonists—U69,593 (KOR), DAMGO (MOR), or DPDPE (DOR). Percent stimulation and EC50 values were determined via nonlinear regression analysis using GraphPad Prism software from at least three separate assays performed in duplicate. Efficacy is expressed as percent stimulation relative to standard agonists.

[5] = biological target: T2, human MOR; test: [35S]-GTPγS binding stimulation, MOR; format: biochemical; conditions: mean (SEM), * n = 2; for EC50: CHO-human MOR membranes, dns = does not stimulate, average maximal stimulation <10% at up to 10 µM; for Emax: versus 10 µM standard agonist DAMGO, dns = average maximal stimulation <10% at up to 10 µM
Experimental: as §1, §2, §4

[6] = biological target: T3, human DOR; test: [35S]-GTPγS binding stimulation, DOR; format: biochemical; conditions: mean (SEM), * n = 2; for EC50 DOR: CHO-human DOR membranes, dns = does not stimulate, average maximal stimulation <10% at up to 10 µM; for % Stimulation DOR: versus 10 µM standard agonist DPDPE, dns = average maximal stimulation <10% at up to 10 µM
Experimental: as §1, §2, §4

Row | SMILES | Ki [1] [nM] | Ki [2] [nM] | Ki [3] [nM] | EC50 [4] [nM] | Emax [4] [%] | EC50 [5] [nM] | Emax [5] [%] | EC50 DOR [6] | % Stimulation DOR [6] | EC50 KOR [4] | % Stimulation KOR [4]
1 | Cc1cc(O)cc(C)c1C[C@H](N)C(=O)N1CCc2ccc(Cc3cccnc3)cc2C1 [Compound 8j, (S)-2-amino-3-(4-hydroxy-2,6-dimethylphenyl)-1-(7-(pyridin-3-ylmethyl)-3,4-dihydroisoquinolin-2(1H)-yl)propan-1-one] | 56 | 5.4 | 1.5 | 988 | 40 | 145 | 23 | dns | dns | – | –
2 | COc1ccccc1Cc1ccc2c(c1)CN(C(=O)[C@@H](N)Cc1c(C)cc(O)cc1C)CC2 [Compound 8a, (S)-2-amino-3-(4-hydroxy-2,6-dimethylphenyl)-1-(7-(2-methoxybenzyl)-3,4-dihydroisoquinolin-2(1H)-yl)propan-1-one] | 3.1 | 3.7 | 2.7 | 130 | 72 | 92 | 37 | dns * | dns * | – | –
3 | Cc1cc(O)cc(C)c1C[C@H](N)C(=O)N1CCc2ccc(CN3CCCCC3)cc2C1 [Compound 8l, (S)-2-amino-3-(4-hydroxy-2,6-dimethylphenyl)-1-(7-(piperidin-1-ylmethyl)-3,4-dihydroisoquinolin-2(1H)-yl)propan-1-one] | 29 | 4.7 | 87 | – | – | 845 | 34 | dns | dns | dns | dns
4 | Cc1cc(O)cc(C)c1C[C@H](N)C(=O)N1CCc2ccc(Cc3cccc(O)c3)cc2C1 [Compound 8f, (S)-2-amino-3-(4-hydroxy-2,6-dimethylphenyl)-1-(7-(3-hydroxybenzyl)-3,4-dihydroisoquinolin-2(1H)-yl)propan-1-one] | 0.8 | 0.6 | 1.4 | 148 | 83 | 18 | 81 | dns * | dns * | – | –
5 | Cc1cc(O)cc(C)c1C[C@H](N)C(=O)N1CCc2ccc(CN3CCc4ccccc43)cc2C1 [Compound 8y, (S)-2-amino-3-(4-hydroxy-2,6-dimethylphenyl)-1-(7-(indolin-1-ylmethyl)-3,4-dihydroisoquinolin-2(1H)-yl)propan-1-one] | 2.6 | 2.2 | 1.7 | 106 | 66 | 42 | 65 | dns * | dns * | – | –
6 | Cc1cc(O)cc(C)c1C[C@H](N)C(=O)N1CCc2ccc(CN3CCCC3)cc2C1 [Compound 8m, (S)-2-amino-3-(4-hydroxy-2,6-dimethylphenyl)-1-(7-(pyrrolidin-1-ylmethyl)-3,4-dihydroisoquinolin-2(1H)-yl)propan-1-one] | 69 | 17 | 175 | – | – | – | 40 | dns * | dns * | dns | dns
7 | Cc1cc(O)cc(C)c1C[C@H](N)C(=O)N1CCc2ccc(Cc3cccc4cnccc34)cc2C1 [Compound 8s, (S)-2-amino-3-(4-hydroxy-2,6-dimethylphenyl)-1-(7-(isoquinolin-5-ylmethyl)-3,4-dihydroisoquinolin-2(1H)-yl)propan-1-one] | 10 | 9.7 | 1.2 | 609 | 24 | 43 | 28 | dns | dns | – | –
